Results taken from PMC9249544, “Identification of Flavonoid C-Glycosides as Promising Antidiabetics Targeting Protein Tyrosine Phosphatase 1B” (Journal of Diabetes Research, 2022).

Target: T1, Protein tyrosine phosphatase 1B (PTP1B) (Homo sapiens, UniProt P18031)
T1 construct: gene PTPN1
T1 sequence (P18031 1-435): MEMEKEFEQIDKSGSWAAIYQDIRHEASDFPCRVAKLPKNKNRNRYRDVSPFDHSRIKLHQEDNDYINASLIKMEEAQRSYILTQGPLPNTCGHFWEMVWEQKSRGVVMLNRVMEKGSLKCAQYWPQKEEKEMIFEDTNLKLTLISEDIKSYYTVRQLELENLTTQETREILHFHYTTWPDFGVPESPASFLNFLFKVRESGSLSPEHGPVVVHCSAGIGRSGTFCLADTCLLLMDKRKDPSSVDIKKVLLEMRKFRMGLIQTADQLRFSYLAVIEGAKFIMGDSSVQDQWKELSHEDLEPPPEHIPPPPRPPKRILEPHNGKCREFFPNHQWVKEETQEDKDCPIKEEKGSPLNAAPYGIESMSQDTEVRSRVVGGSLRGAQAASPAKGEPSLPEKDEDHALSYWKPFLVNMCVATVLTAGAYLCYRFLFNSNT
Experiment: p-NPP hydrolysis assay with human recombinant PTP1B ([…] nm); Lineweaver-Burk kinetics
Assay type: biochemical

## O=c1cc(-c2ccc(O)c(O)c2)oc2c([C@@H]3O[C@H](CO)[C@@H](O)[C@H](O)[C@H]3O)c(O)cc(O)c12 [orientin]
  IC50: 401 µM
